Laboratory results published in patent publication US6440968B1, “Use of maduraohtalazine derivatives as inhibitors of proinflammatory cytokines” (Elbion G.m.b.H., priority 1999, dated 2002).

What was measured:
[1] = tested on: IL-4 release from D10.G4.1 cells; assay: Inhibition of IL-4 release from D10.G4.1 cells (D10); format: cell-based; conditions: D10 cells stimulated with anti-CD3 antibody, IL-4 ELISA of supernatants
Experimental: (§1) To determine the effect of the compounds according to the invention on the said cytokines, the inhibition of the release of IL-2,IL-4 and IL-5 from T cells was investigated in vitro.
3 days after thawing and cultivating D10 cells in medium (RPMI-1640 with HEPES/10% FCS/2 mM glutamine/100 U/m penicillin/100 mg/m streptomycin and 50 μM mercaptoethanol) with Rat Stim™ (Collaborative Biomedical Products, Bedford Mass.) they are spun down, washed with medium without Rat Stim™, seeded at a concentration of 40,000 to 60,000 cells per well in a microtitre plate and incubated at 37° C./5% CO2/100% humidity for 3.5 hours. The substances to be tested are then applied in various concentrations in each case 50μ per well. The determinations of the maximum value and spontaneous value each receive 50μ of medium/0.4% DMSO.
After a further 30 minutes of incubation, stimulation is carried out with in each case 50μ of anti-CD3 antibody (145-2C11, Cedarlane Laboratories Limited, Hornby/Ontario) per well (final dilution 1:100). The determination of the spontaneous value receives 50μ of medium. After incubation overnight, the supernatants are measured in an IL-4 ELISA (Pharmingen: capture mab: 18031D; detection mab: 18042 D). The IC50 determination was analysed by a logit-log plot.

[2] = tested on: IL-5 release from D10.G4.1 cells; assay: Inhibition of IL-5 release from D10.G4.1 cells (D10); format: cell-based; conditions: D10 cells stimulated with anti-CD3 antibody, IL-5 ELISA of supernatants
Experimental: as §1
3 days after thawing and cultivating D10 cells in medium (RPMI-1640 with HEPES/10% FCS/2 mM glutamine/100 U/m penicillin/100 mg/m streptomycin and 50 μM mercaptoethanol) with Rat Stirm™ (Collaborative Biomedical Products, Bedford Mass.) they are spun down, washed with medium without Rat Stim™, seeded at a concentration of 40,000 to 60,000 cells per well in a microtitre plate and incubated at 37° C./5% CO2/100% humidity for 3.5 hours. The substances to be tested are then applied in various concentrations in each case 50μ per well. The determinations of the maximum value and spontaneous value each receive 50μ d of medium/0.4% DMSO. After a further 30 minutes of incubation, stimulation is carried out with in each case 50μ of anti-CD3 antibody (145-2C11, Cedarlane Laboratories Limited, Hornby/Ontario) per well (final dilution 1:100). The determination of the spontaneous value receives 50μ of medium. After incubation overnight, the supernatants are measured in an IL-5 ELISA (Pharmingen: capture mab: 18051D; detection mab: 18062 D). The IC50 determination was analysed by a logit-log plot.

[3] = tested on: IL-2 release from Jurkat cells; assay: Inhibition of IL-2 release from Jurkat cells; format: cell-based; conditions: Homo sapiens; Jurkat cells stimulated with ionomycin/PMA, IL-2 ELISA of supernatants
Experimental: as §1
Jurkat cells (clone E6-1, batch F-12871, from ATCC, Rockville, Md.) are seeded at about 100,000 cells in 50μ per well in microtitre plates and preincubated in an incubator (5% CO2/37° C./100% humidity). The medium employed is RPMI-1640 with HEPES/10% FCS/2 mM glutamine/100 U/m penicillin/100 mg/m streptomycin and 50 μM mercaptoethanol. After 3 hours, the substances to be tested are applied in various concentrations (100μ per well). To determine the spontaneous value and maximum values, in each case only medium/0.2% DMSO is applied. 30 minutes after application of substance and incubation, stimulation is carried out with in each case 25μ of ionomycin (final concentration 1 μM, Sigma I-0634) and phorbol myristate acetate (PMA, final concentration 25 ng/m, Sigma P-8139) per well. The spontaneous value receives 50μ of medium in place of ionomycin/PMA. Incubation overnight is then carried out. The supernatants are measured undiluted in an IL-2 ELISA (Pharmingen, capture mab: 18951 D detection mab: 20672 D). The IC50 determination was analysed by a logit-log plot.

[4] = tested on: pulmonary infiltration of eosinophils; assay: Inhibition of the late phase eosinophilia 24 h after challenge of actively sensitized guinea pigs by ovalbumin inhalation; format: in vivo, Dunkin-Hartley guinea pigs; conditions: 10 mg/kg i.p. 2 h before challenge, bronchoalveolar lavage 24 h after ovalbumin challenge; for Eosinophils B = eosinophils in the substance-treated group with ovalbumin challenge: mean
Experimental: The inhibition of the pulmonary infiltration of eosinophils by the substances is examined in an in vivo test on Dunkin-Hartley guinea pigs which have been actively sensitized against ovalbumin. The sensitization is effected by two subcutaneous injections of a suspension of 10 μg of ovalbumin together with 1 mg of aluminium hydroxide in 0.5 m of physiological saline as adjuvant at an interval of 14 days. 7 days after the second injection, the animals in the control group which are to be exposed to an ovalbumin aerosol are pretreated with mepyramine maleate (10 mg/kg i.p.) in order to protect from anaphylactic death. After 30 minutes, the animals are exposed in a plastic box for 30 sec to an ovalbumin aerosol (0.5 mg/m ) which is produced by an atomizer driven by compressed air (19.6 kPa). Control animals are exposed to an aerosol of physiological saline. 24 hours after the exposure to ovalbumin aerosol (challenge) the animals are anaesthetized with an overdose of ethylurethane (1.5 g/kg of body weight i.p.), and a bronchoalveolar lavage is carried out with 2×5 m of physiological saline. The lavage fluid is collected and centrifuged at 300 rpm for 10 min, and then the cell pellet is resuspended in 1 m of physiological saline. The eosinophils are stained using the Becton-Dickinson test kit (N.5877) for eosinophils and are counted in a Neubauer chamber. Each test includes 2 control groups (exposure to a physiological saline aerosol and exposure to an ovalbumin solution aerosol).
The test substances are administered intraperitoneally or orally as suspension in 10% polyethylene glycol 300 and 0.5% strength 5-hydroxyethylcellulose 2 hours before the allergen challenge. The control groups are treated with the vehicle in a form corresponding to the administration of the test substance. The number of animals in each control and test group is 3-10.

Row | Compound | melting point | IC50 [2] | also measured
1 | COc1c2c(c(O)c3c1C(=O)c1c(cc(O)c(C)c1O)C3=O)-c1c(cc3cnn(-c4ncc[nH]4)c(=O)c3c1O)CC2 [Compound 15, 2-(2-Imidazolyl)-10,12,15,16-tetrahydroxy-8-methoxy-11-methyl-9,14-dioxo-6,7,9,14-tetrahydronaphthaceno[1,2-g]phthalazin-1-one] | > 350 °C (dec.) | – | –
2 | COC(=O)Oc1cc2c(c(O)c1C)C(=O)c1c(OC)c3c(c(O)c1C2=O)-c1c(cc2cnn(-c4ccccc4)c(=O)c2c1O)CC3 [Compound 7, 2-Phenyl-10,15,16-trihydroxy-8-methoxy-12-methoxycarbonyloxy-11-methyl-9,14-dioxo-6,7,9,14-tetrahydronaphthaceno[1,2-g]phthalazin-1-one] | > 350 °C | – | –
3 | CCCn1ncc2cc3c(c(O)c2c1=O)-c1c(O)c2c(c(OC)c1CC3)C(=O)c1c(cc(O)c(C)c1O)C2=O [Compound 3, 2-Propyl-10,12,15,16-tetrahydroxy-8-methoxy-11-methyl-9,14-dioxo-6,7,9,14-tetrahydronaphthaceno[1,2-g]phthalazin-1-one] | 350 to 351 °C | – | IC50 [1]: 2910 nM
4 | COc1c2c(c(OC(C)=O)c3c1C(=O)c1c(cc(OC(C)=O)c(C)c1OC(C)=O)C3=O)-c1c(cc3cnn(-c4ccccc4)c(=O)c3c1OC(C)=O)CC2 [Compound 12, 2-Phenyl-10,12,15,16-tetraacetoxy-8-methoxy-11-methyl-9,14-dioxo-6,7,9,14-tetrahydronaphthaceno[1,2-g]phthalazin-1-one] | 273 °C | – | –
5 | COc1c2c(c(O)c3c1C(=O)c1c(cc(O)c(C)c1O)C3=O)-c1c(cc3cnn(-c4ccccn4)c(=O)c3c1O)CC2 [Compound 16, 2-(2-Pyridyl)-10,12,15,16-tetrahydroxy-8-methoxy-11-methyl-9,14-dioxo-6,7,9,14-tetrahydronaphtbaceno[1,2-g]phthalazin-1-one] | – | 520 nM | –
6 | COc1c2c(c(O)c3c1C(=O)c1c(cc(O)c(C)c1O)C3=O)-c1c(cc3cnn(CCOC(C)=O)c(=O)c3c1O)CC2 [Compound 6, 2-(2-Acetoxyethyl)-10,12,15,16-tetrahydroxy-8-methoxy-11-methyl-9,14-dioxo-6,7,9,14-tetrahydronaphthaceno[1,2-g]phthalazin-1-one] | > 350 °C | – | –
7 | C=CCc1cc2c(c(O)c1C)C(=O)c1c(OC)c3c(c(O)c1C2=O)-c1c(cc2cnn(-c4ccccc4)c(=O)c2c1O)CC3 [Compound 17, 2-Phenyl-12-allyl-10,15,16-trihydroxy-8-methoxy-11-methyl-9,14-dioxo-6,7,9,14-tetrahydronaphthaceno[1,2-g]phthalazin-1-one] | 163 °C | – | –
8 | Cc1c(O)cc2c(c1O)C(=O)c1c(O)c3c(c(O)c1C2=O)-c1c(cc2cnn(-c4ccccc4)c(=O)c2c1O)CC3 [Compound 10, 2-Phenyl-8,10,12,15,16-pentahydroxy-11-methyl-9,14-dioxo-6,7,9,14-tetrahydronaphthaceno[1,2-g]phthalazin-1-one] | > 350 °C | – | –
9 | COc1c2c(c(O)c3c1C(=O)c1c(cc(O)c(C)c1O)C3=O)-c1c(cc3cn[nH]c(=O)c3c1O)CC2 [Compound 1, 10,12,15,16-Tetrahydroxy-8-methoxy-11-methyl-9,14-dioxo-6,7,9,14-tetrahydronaphthaceno[1,2-g]phthalazin-1-one] | – | 450 nM | IC50 [3]: 80 nM; IC50 [1]: 860 nM; Inhibition (of late phase eosinophilia) [4]: 112.4; Eosinophils B = eosinophils in the substance-treated group with ovalbumin challenge [4]: 0.51 10^6/animal
10 | Cc1c(O)cc2c(c1O)C(=O)c1c(O)c3c(c(O)c1C2=O)-c1c(cc2cnn(-c4ccccn4)c(=O)c2c1O)CC3 [Compound 9, 2-(2-Pyridyl)-8,10,12,15,16-pentahydroxy-11-methyl-9,14-dioxo-6,7,9,14-tetrahydronaphthaceno[1,2-g]phthalazin-1-one] | > 350 °C | – | –
11 | COc1c2c(c(O)c3c1C(=O)c1c(cc(O)c(C)c1O)C3=O)-c1c(cc3cnn(CCO)c(=O)c3c1O)CC2 [Compound 4, 2-(2-Hydroxyethyl)-10,12,15,16-tetrahydroxy-8-methoxy-11-methyl-9,14-dioxo-6,7,9,14-tetrahydronaphthaceno[1,2-g]phthalazin-1-one] | > 300 °C | – | –
12 | COc1c2c(c(O)c3c1C(=O)c1c(cc(O)c(C)c1O)C3=O)-c1c(cc3cnn(CCN)c(=O)c3c1O)CC2 [Compound 8, 2-(2-Aminoethyl)-10,12,15,16-tetrahydroxy-8-methoxy-11-methyl-9,14-dioxo-6,7,9,14-tetrahydronaphthaceno[1,2-g]phthalazin-1-one] | > 350 °C (dec.) | 780 nM | IC50 [1]: 2580 nM
13 | COc1c2c(c(O)c3c1C(=O)c1c(O)cc(O)cc1C3=O)-c1c(cc3c(C)nn(C)c(=O)c3c1O)CC2 [Compound 2, 2-Methyl-10,12,15,16-tetrahydroxy-8-methoxy-1-methyl-9,14-dioxo-6,7,9,14-tetrahydronaphthaceno[1,2-g]phthalazin-1-one] | – | 880 nM | IC50 [1]: 1460 nM
14 | CCOC(Cn1ncc2cc3c(c(O)c2c1=O)-c1c(O)c2c(c(OC)c1CC3)C(=O)c1c(cc(O)c(C)c1O)C2=O)OCC [Compound 11, 2-(2,2-Diethoxyethyl)-10,12,15,16-tetrahydroxy-8-methoxy-11-methyl-9,14-dioxo-6,7,9,14-tetrahydronaphthaceno[1,2-g]phthalazin-1-one] | 285 °C | – | –
15 | COc1c2c(c(O)c3c1C(=O)c1c(cc(O)c(C)c1O)C3=O)-c1c(cc3cnn(-c4ccccc4)c(=O)c3c1O)CC2 [Compound 5, 2-phenyl-10,12,15,16-tetrahydroxy-8-methoxy-11-methyl-9,14-dioxo-6,7,9, 14-tetrahydronaphthaceno[1,2-g]phthalazin-1-one] | – | 430 nM | IC50 [3]: 200 nM; Inhibition (of late phase eosinophilia) [4]: 85.0; Eosinophils B = eosinophils in the substance-treated group with ovalbumin challenge [4]: 0.85 10^6/animal
